Reference: article PMC11730311 (Scientific Reports, 2025)
Starred links: 1 amine or outer side, 2 acyl side, 3 side chain; linkers in the order of their positions; H or OH if unused. Residues, ends and D or L forms follow the SMILES beside them. Groups on a side chain read outwards from the residue. No end group written: not given here. *: point of attachment. C20 diacid = O=C(O)CCCCCCCCCCCCCCCCCCC(=O)*; γGlu = O=C(O)[C@H](CCC(=O)[*:2])N[*:1]

What was measured:
[1] = Pharmacokinetic pilot study, plasma exposure after IV dosing; format: in vivo, mouse; details: for half-life: male, NMRI, mouse, plasma, iv, 700 nmol/kg
[2] = target: human calcitonin gene-related peptide receptor (hCGRP-R) (Homo sapiens, UniProt O60894+Q16602); assay: cell-based
human calcitonin gene-related peptide receptor (hCGRP-R), sequence (Q16602 23-461): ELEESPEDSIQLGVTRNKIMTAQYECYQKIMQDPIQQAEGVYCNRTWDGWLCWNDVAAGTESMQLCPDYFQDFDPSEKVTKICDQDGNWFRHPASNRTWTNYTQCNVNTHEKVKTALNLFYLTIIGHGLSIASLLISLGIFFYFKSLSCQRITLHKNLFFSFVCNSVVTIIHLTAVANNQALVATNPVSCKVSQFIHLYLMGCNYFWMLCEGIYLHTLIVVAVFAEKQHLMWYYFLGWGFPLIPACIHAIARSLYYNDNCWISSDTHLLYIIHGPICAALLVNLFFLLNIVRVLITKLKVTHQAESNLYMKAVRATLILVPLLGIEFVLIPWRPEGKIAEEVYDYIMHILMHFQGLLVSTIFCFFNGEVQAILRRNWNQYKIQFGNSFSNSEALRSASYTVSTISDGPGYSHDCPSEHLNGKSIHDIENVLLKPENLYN
human calcitonin gene-related peptide receptor (hCGRP-R), sequence (O60894 27-148): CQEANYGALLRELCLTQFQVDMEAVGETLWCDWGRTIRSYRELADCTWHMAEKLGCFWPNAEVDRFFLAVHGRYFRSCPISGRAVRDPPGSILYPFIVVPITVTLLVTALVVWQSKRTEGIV

Row | Compound | half-life [1] | Kb [2] | difference in half-life versus hαCGRP8-37N25K-C20DA-γGlu ([1]; male NMRI mice, IV)
1 | CC(C)C[C@H](NC(=O)CNC(=O)[C@H](C)NC(=O)[C@H](CC(C)C)NC(=O)[C@H](CCCNC(=N)N)NC(=O)[C@H](Cc1c[nH]cn1)NC(=O)[C@@H](NC(=O)[C@@H](N)C(C)C)[C@@H](C)O)C(=O)N[C@@H](CC(C)C)C(=O)N[C@@H](CO)C(=O)N[C@@H](CCCNC(=N)N)C(=O)N[C@@H](CO)C(=O)N[C@@H](CCCCNC(=O)CC[C@H](NC(=O)CCCCCCCCCCCCCCCCCCC(=O)O)C(=O)O)C(=O)NCC(=O)N[C@H](C(=O)N[C@H](C(=O)N[C@@H](CCCCN)C(=O)N[C@@H](CC(N)=O)C(=O)N[C@@H](CC(N)=O)C(=O)N[C@@H](Cc1ccccc1)C(=O)N[C@H](C(=O)N1CCC[C@H]1C(=O)N[C@H](C(=O)N[C@@H](CC(N)=O)C(=O)N[C@H](C(=O)NCC(=O)N[C@@H](CO)C(=O)N[C@@H](CCCCN)C(=O)N[C@@H](C)C(=O)N[C@@H](Cc1ccccc1)C(N)=O)C(C)C)[C@@H](C)O)C(C)C)C(C)C)C(C)C [G20K-C20DA-γGlu] (H-VTHRLAGLLSRSK([γGlu-C20 diacid])GVVKNNFVPTNVGSKAF-NH2) | 7.5 h |  | 
2 | CC(C)C[C@H](NC(=O)CNC(=O)[C@H](C)NC(=O)[C@H](CC(C)C)NC(=O)[C@H](CCCNC(=N)N)NC(=O)[C@H](Cc1c[nH]cn1)NC(=O)[C@@H](NC(=O)[C@@H](N)C(C)C)[C@@H](C)O)C(=O)N[C@@H](CC(C)C)C(=O)N[C@@H](CO)C(=O)N[C@@H](CCCNC(=N)N)C(=O)N[C@@H](CO)C(=O)NCC(=O)NCC(=O)N[C@H](C(=O)N[C@H](C(=O)N[C@@H](CCCCN)C(=O)N[C@@H](CCCCNC(=O)CC[C@H](NC(=O)CCCCCCCCCCCCCCCCCCC(=O)O)C(=O)O)C(=O)N[C@@H](CC(N)=O)C(=O)N[C@@H](Cc1ccccc1)C(=O)N[C@H](C(=O)N1CCC[C@H]1C(=O)N[C@H](C(=O)N[C@@H](CC(N)=O)C(=O)N[C@H](C(=O)NCC(=O)N[C@@H](CO)C(=O)N[C@@H](CCCCN)C(=O)N[C@@H](C)C(=O)N[C@@H](Cc1ccccc1)C(N)=O)C(C)C)[C@@H](C)O)C(C)C)C(C)C)C(C)C [hαCGRP8-37N25K-C20DA-γGlu] | 7.3 h | 4.68 nM | 
3 | CC(C)C[C@H](NC(=O)CNC(=O)[C@H](C)NC(=O)[C@H](CC(C)C)NC(=O)[C@H](CCCNC(=N)N)NC(=O)[C@H](Cc1c[nH]cn1)NC(=O)[C@@H](NC(=O)[C@@H](N)C(C)C)[C@@H](C)O)C(=O)N[C@@H](CC(C)C)C(=O)N[C@@H](CCCCNC(=O)CC[C@H](NC(=O)CCCCCCCCCCCCCCCCCCC(=O)O)C(=O)O)C(=O)N[C@@H](CCCNC(=N)N)C(=O)N[C@@H](CO)C(=O)NCC(=O)NCC(=O)N[C@H](C(=O)N[C@H](C(=O)N[C@@H](CCCCN)C(=O)N[C@@H](CC(N)=O)C(=O)N[C@@H](CC(N)=O)C(=O)N[C@@H](Cc1ccccc1)C(=O)N[C@H](C(=O)N1CCC[C@H]1C(=O)N[C@H](C(=O)N[C@@H](CC(N)=O)C(=O)N[C@H](C(=O)NCC(=O)N[C@@H](CO)C(=O)N[C@@H](CCCCN)C(=O)N[C@@H](C)C(=O)N[C@@H](Cc1ccccc1)C(N)=O)C(C)C)[C@@H](C)O)C(C)C)C(C)C)C(C)C [S17K-C20DA-γGlu] (H-VTHRLAGLLK([γGlu-C20 diacid])RSGGVVKNNFVPTNVGSKAF-NH2) | 12.3 h |  | 
4 | VTHRLAGLLSRSGGVVKNNFVPTNVGSKSF-NH2 [hαCGRP8-37A36S] |  | 1.66 nM | 
5 | CC(C)C[C@H](NC(=O)CNC(=O)[C@H](C)NC(=O)[C@H](CC(C)C)NC(=O)[C@H](CCCNC(=N)N)NC(=O)[C@H](Cc1c[nH]cn1)NC(=O)[C@@H](NC(=O)[C@@H](N)C(C)C)[C@@H](C)O)C(=O)N[C@@H](CC(C)C)C(=O)N[C@@H](CO)C(=O)N[C@@H](CCCNC(=N)N)C(=O)N[C@@H](CO)C(=O)NCC(=O)NCC(=O)N[C@H](C(=O)N[C@H](C(=O)N[C@@H](CCCCN)C(=O)N[C@@H](CCCCNC(=O)CC[C@H](NC(=O)CCCCCCCCCCCCCCCCCCC(=O)O)C(=O)O)C(=O)N[C@@H](CC(N)=O)C(=O)N[C@@H](Cc1ccccc1)C(=O)N[C@H](C(=O)N1CCC[C@H]1C(=O)N[C@H](C(=O)N[C@@H](CC(N)=O)C(=O)N[C@H](C(=O)NCC(=O)N[C@@H](CO)C(=O)N[C@@H](CCCCN)C(=O)N[C@@H](CO)C(=O)N[C@@H](Cc1ccccc1)C(N)=O)C(C)C)[C@@H](C)O)C(C)C)C(C)C)C(C)C [hαCGRP8-37A36S, N25K-C20DA-γGlu] (H-VTHRLAGLLSRSGGVVKK([γGlu-C20 diacid])NFVPTNVGSKSF-NH2) |  | 6.76 nM | 
6 | CC(C)C[C@H](NC(=O)[C@H](CCCNC(=N)N)NC(=O)[C@H](Cc1c[nH]cn1)NC(=O)[C@@H](NC(=O)[C@@H](N)C(C)C)[C@@H](C)O)C(=O)N[C@@H](C)C(=O)N[C@@H](CCCCNC(=O)CC[C@H](NC(=O)CCCCCCCCCCCCCCCCCCC(=O)O)C(=O)O)C(=O)N[C@@H](CC(C)C)C(=O)N[C@@H](CC(C)C)C(=O)N[C@@H](CO)C(=O)N[C@@H](CCCNC(=N)N)C(=O)N[C@@H](CO)C(=O)NCC(=O)NCC(=O)N[C@H](C(=O)N[C@H](C(=O)N[C@@H](CCCCN)C(=O)N[C@@H](CC(N)=O)C(=O)N[C@@H](CC(N)=O)C(=O)N[C@@H](Cc1ccccc1)C(=O)N[C@H](C(=O)N1CCC[C@H]1C(=O)N[C@H](C(=O)N[C@@H](CC(N)=O)C(=O)N[C@H](C(=O)NCC(=O)N[C@@H](CO)C(=O)N[C@@H](CCCCN)C(=O)N[C@@H](C)C(=O)N[C@@H](Cc1ccccc1)C(N)=O)C(C)C)[C@@H](C)O)C(C)C)C(C)C)C(C)C [G14K-C20DA-γGlu] (H-VTHRLAK([γGlu-C20 diacid])LLSRSGGVVKNNFVPTNVGSKAF-NH2) | 10.1 h |  | 
7 | CC(C)C[C@H](NC(=O)CNC(=O)[C@H](C)NC(=O)[C@H](CC(C)C)NC(=O)[C@H](CCCNC(=N)N)NC(=O)[C@H](Cc1c[nH]cn1)NC(=O)[C@@H](NC(=O)[C@@H](N)C(C)C)[C@@H](C)O)C(=O)N[C@@H](CC(C)C)C(=O)N[C@@H](CO)C(=O)N[C@@H](CCCNC(=N)N)C(=O)N[C@@H](CCCCNC(=O)CC[C@H](NC(=O)CCCCCCCCCCCCCCCCCCC(=O)O)C(=O)O)C(=O)NCC(=O)NCC(=O)N[C@H](C(=O)N[C@H](C(=O)N[C@@H](CCCCN)C(=O)N[C@@H](CC(N)=O)C(=O)N[C@@H](CC(N)=O)C(=O)N[C@@H](Cc1ccccc1)C(=O)N[C@H](C(=O)N1CCC[C@H]1C(=O)N[C@H](C(=O)N[C@@H](CC(N)=O)C(=O)N[C@H](C(=O)NCC(=O)N[C@@H](CO)C(=O)N[C@@H](CCCCN)C(=O)N[C@@H](C)C(=O)N[C@@H](Cc1ccccc1)C(N)=O)C(C)C)[C@@H](C)O)C(C)C)C(C)C)C(C)C [S19K-C20DA-γGlu] (H-VTHRLAGLLSRK([γGlu-C20 diacid])GGVVKNNFVPTNVGSKAF-NH2) | 13.7 h |  | ~ 6 h
